Data published in US20200071326A1, “TAM KINASE INHIBITORS” (Syros Pharmaceuticals, Inc., priority 2017, published 2020).
Where a name gives a salt, the structure may show the parent alone.

Legend:
FLT3 = molecular target: T1, FLT3 (Homo sapiens, UniProt P36888); experiment: IMAP fluorescence polarization kinase assay, FLT3; format: biochemical; conditions: ATP 2.74 μM, enzyme 2.5 nM, 240 minutes, read-out: FLT3 inhibitory constant (Ki)
T1 sequence (P36888 27-993): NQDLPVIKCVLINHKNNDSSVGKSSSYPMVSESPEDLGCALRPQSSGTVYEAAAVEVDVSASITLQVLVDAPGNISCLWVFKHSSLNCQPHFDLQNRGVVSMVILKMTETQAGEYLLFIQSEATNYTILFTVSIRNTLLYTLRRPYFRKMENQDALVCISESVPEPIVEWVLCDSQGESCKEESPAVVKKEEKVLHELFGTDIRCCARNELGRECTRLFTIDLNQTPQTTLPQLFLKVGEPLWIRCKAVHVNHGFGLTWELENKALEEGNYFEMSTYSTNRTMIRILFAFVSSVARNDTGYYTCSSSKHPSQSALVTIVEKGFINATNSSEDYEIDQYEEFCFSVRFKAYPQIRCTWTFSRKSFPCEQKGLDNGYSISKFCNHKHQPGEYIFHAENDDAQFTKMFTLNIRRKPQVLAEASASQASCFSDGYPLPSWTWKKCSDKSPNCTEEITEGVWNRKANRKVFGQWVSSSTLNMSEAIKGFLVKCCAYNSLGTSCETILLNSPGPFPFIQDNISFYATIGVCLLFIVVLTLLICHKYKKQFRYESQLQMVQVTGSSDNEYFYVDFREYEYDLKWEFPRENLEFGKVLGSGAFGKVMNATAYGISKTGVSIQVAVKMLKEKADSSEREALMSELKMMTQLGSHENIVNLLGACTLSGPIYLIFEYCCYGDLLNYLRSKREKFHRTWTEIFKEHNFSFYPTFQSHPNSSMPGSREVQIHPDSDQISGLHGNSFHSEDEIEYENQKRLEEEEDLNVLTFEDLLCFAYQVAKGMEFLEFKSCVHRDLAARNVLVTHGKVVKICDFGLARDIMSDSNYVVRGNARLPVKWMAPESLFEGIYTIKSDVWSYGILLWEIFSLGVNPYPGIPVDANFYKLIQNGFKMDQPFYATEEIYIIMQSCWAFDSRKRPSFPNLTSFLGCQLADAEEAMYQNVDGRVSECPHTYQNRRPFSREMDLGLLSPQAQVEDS
Description: (§1) Activities of compounds against each of TYRO3, AXL, and MERTK as well as against FLT3, were determined using an immobilized metal ion affinity-based fluorescence polarization (“IMAP”) assay. A fluorescently-labeled substrate peptide was phosphorylated in the kinase reaction, after which a binding solution containing large trivalent metal-based nanoparticles was added and the phosphorylated substrate binds to these beads. This reduces the rotational speed of the substrate which is then detected using fluorescence polarization as a read-out.
(§2) The substrates used for each enzyme are as follows: AXL: 5F1-KKKKEEIYFFFG-NH2(SEQ ID NO:1); FLT3: 5F1-KKKKEEIYFFF-NH2 (SEQ ID NO:2); MERTK: 5F1-EFPIYDFLPAKKK-NH2 (SEQ ID NO:3); and TYRO3: 5F1-EFPIYDFLPAKKK-NH2 (SEQ ID NO:4).
(§3) This assay was performed in a 384-well, polystyrene microplate in a final volume of 8 μl. Substrate (final concentration=400 nM), ATP (final concentrations=24.7μM for AXL; 2.74 μM for FLT3; 2.69 μM for MERTK; and 54.0 μM for TYRO3), compounds and enzyme (final concentrations=2.5 nM for AXL, FLT3 and TYRO3; 1.5 nM for MERTK) were pipetted in this order into the appropriate reaction buffer (AXL: 50 mM HEPES, pH 8.0, 1 mM DTT, 10 mM MgCl2, 0.01% BRU35, 0.01% Triton X-100; FLT3: 50 mM HEPES, pH 8.0, 1 mM DTT, 10 mM MgCl2, 0.01% Triton X-100, 0.01% NP40; MERTK/TYRO3: 50 mM HEPES, pH 8.0, 1 mM DTT, 10 mM MgCl2, 0.01% Triton X-100) and incubated at room temperature for varying times (AXL, FLT3 and MERTK: 240 minutes; TYRO3: 60 minutes). IMAP binding solution was then dispensed, the plate incubated for 60 minutes at room temperature and the fluorescence polarization measured. Data were analyzed using XLfit.

TYRO3 = molecular target: T2, TYRO3 (Homo sapiens, UniProt Q06418); experiment: IMAP fluorescence polarization kinase assay, TYRO3; format: biochemical; conditions: ATP 54.0 μM, enzyme 2.5 nM, 60 minutes, read-out: TYRO3 inhibitory constant (Ki)
T2 sequence (Q06418 41-890): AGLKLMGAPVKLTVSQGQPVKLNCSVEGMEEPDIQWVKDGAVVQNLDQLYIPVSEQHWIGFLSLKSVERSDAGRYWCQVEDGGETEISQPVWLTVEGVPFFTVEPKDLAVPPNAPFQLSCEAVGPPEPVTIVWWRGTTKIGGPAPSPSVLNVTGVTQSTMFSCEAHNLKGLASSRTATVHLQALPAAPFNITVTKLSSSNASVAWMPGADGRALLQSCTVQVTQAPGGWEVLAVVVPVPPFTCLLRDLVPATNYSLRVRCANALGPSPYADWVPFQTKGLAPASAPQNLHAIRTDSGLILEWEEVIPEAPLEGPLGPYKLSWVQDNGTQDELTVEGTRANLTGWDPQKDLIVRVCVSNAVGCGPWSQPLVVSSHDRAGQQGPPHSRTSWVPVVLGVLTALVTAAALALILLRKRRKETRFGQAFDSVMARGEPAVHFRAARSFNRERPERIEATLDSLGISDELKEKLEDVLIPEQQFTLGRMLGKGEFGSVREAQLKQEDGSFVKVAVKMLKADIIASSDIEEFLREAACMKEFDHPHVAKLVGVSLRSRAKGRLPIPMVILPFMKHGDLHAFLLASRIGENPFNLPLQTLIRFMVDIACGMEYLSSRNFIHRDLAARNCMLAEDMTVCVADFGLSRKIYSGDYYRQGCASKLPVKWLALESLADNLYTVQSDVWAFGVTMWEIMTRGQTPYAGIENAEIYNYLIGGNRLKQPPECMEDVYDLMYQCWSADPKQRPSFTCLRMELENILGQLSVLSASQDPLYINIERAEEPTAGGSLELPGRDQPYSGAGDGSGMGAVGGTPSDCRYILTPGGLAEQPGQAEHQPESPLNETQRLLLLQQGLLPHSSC
Description: as §1, §2, §3

Ki (FLT3) | Ki (TYRO3) | SMILES
< 0.1 µM | < 0.1 µM | CC(C)c1cc2c(N[C@H]3CC[C@H](N)CC3)c(C(=O)NCc3ccc(-n4ccnc4)cc3)cnc2[nH]1 [Compound 129]
0.1 to 1 µM | < 0.1 µM | CCC(C)c1cc2c(N[C@H]3CC[C@H](N)CC3)c(C(=O)Nc3ccc(F)cc3)cnc2[nH]1 (some centres unmarked) [Compound 134]
0.1 to 1 µM | < 0.1 µM | N[C@H]1CC[C@H](Nc2c(C(=O)Nc3ccc(F)cc3)cnc3[nH]c(C(F)(F)F)cc23)CC1 [Compound 135, 4-(((1r,4r)-4-aminocyclohexyl)amino)-N-(4-fluorophenyl)-2-(trifluoromethyl)-1H-pyrrolo[2,3-b]pyridine-5-carboxamide hydrochloride]
< 0.1 µM | < 0.1 µM | CCc1cc2c(N[C@H]3CC[C@H](N)CC3)c(C(=O)Nc3ccc(F)cc3)cnc2[nH]1 [Compound 136]
< 0.1 µM | < 0.1 µM | N[C@H]1CC[C@H](Nc2c(C(=O)Nc3ccc(F)cc3)cnc3[nH]c(C4CCC4)cc23)CC1 [Compound 138, 4-(((1r,4r)-4-aminocyclohexyl)amino)-2-cyclobutyl-N-(4-fluorophenyl)-1H-pyrrolo[2,3-b]pyridine-5-carboxamide hydrochloride]
< 0.1 µM | < 0.1 µM | CCc1cc2c(N[C@H]3CC[C@H](O)CC3)c(-c3ccc(CN4CCOCC4)cn3)cnc2[nH]1 [Compound 144]
0.1 to 1 µM | 0.1 to 1 µM | CC(O)c1cc2c(N[C@H]3CC[C@H](N)CC3)c(C(=O)Nc3ccc(F)cc3)cnc2[nH]1 (some centres unmarked) [Compound 148]
1 to 10 µM | < 0.1 µM | CCC[C@H](C)c1cc2c(N[C@H]3CC[C@H](N)CC3)c(C(=O)Nc3ccc(F)cc3)cnc2[nH]1 [Compound 149]
1 to 10 µM | < 0.1 µM | CCC[C@@H](C)c1cc2c(N[C@H]3CC[C@H](N)CC3)c(C(=O)Nc3ccc(F)cc3)cnc2[nH]1 [Compound 150]
> 10 µM | 1 to 10 µM | CCC(C)c1cc2c(N[C@H]3CC[C@H](O)CC3)c(C(=O)NC3CCN(c4ncccn4)CC3)cnc2[nH]1 (some centres unmarked) [Compound 157]
0.1 to 1 µM | < 0.1 µM | CCC(C)c1cc2c(N[C@H]3CC[C@H](O)CC3)c(C(=O)NC3CCN(C4=NCCCN4)CC3)cnc2[nH]1 (some centres unmarked) [Compound 158]
> 10 µM | 1 to 10 µM | CCC(C)c1cc2c(N[C@H]3CC[C@H](O)CC3)c(-c3ccc(S(=O)(=O)N4CCOCC4)cn3)cnc2[nH]1 (some centres unmarked) [Compound 159]

More lines, now with the values behind:

SMILES | Ki (FLT3) | Ki (TYRO3)
C#Cc1cc2c(N[C@H]3CC[C@H](N)CC3)c(C(=O)Nc3ccc(F)cc3)cnc2[nH]1 [Compound 128, [4-1(4-aminocyclohexyl)amino]-2-ethynyl-N-(4-fluorophenyl)-1H-pyrrolo[2,3-b]pyridine-5-carboxamide] | < 0.1 µM | 0.1 to 1 µM
CCCc1cc2c(N[C@H]3CC[C@H](N)CC3)c(-c3ccc(COC(C)C)cn3)cnc2[nH]1 [Compound 130] | < 0.1 µM | < 0.1 µM
CCCc1cc2c(N[C@H]3CC[C@H](N)CC3)c(-c3cc(N)ccn3)cnc2[nH]1 [Compound 131] | < 0.1 µM | < 0.1 µM
CCc1cc2c(N[C@H]3CC[C@H](N)CC3)c(C(=O)NC3CCN(c4ncccn4)CC3)cnc2[nH]1 [Compound 132] | < 0.1 µM | < 0.1 µM
CCCCCc1cc2c(N[C@H]3CC[C@H](N)CC3)c(C(=O)NCc3ccc(-n4ccnc4)cc3)cnc2[nH]1 [Compound 133] | 0.1 to 1 µM | < 0.1 µM
CCCC(O)c1cc2c(N[C@H]3CC[C@H](N)CC3)c(Br)cnc2[nH]1 (some centres unmarked) [Compound 137] | 1 to 10 µM | 0.1 to 1 µM
CCCc1cc2c(N[C@H]3CC[C@H](N)CC3)c(C(=O)NC)cnc2[nH]1 [Compound 139] | < 0.1 µM | < 0.1 µM
CCCc1cc2c(N[C@H]3CC[C@H](N)CC3)c(C(=O)OC)cnc2[nH]1 [Compound 140] | < 0.1 µM | < 0.1 µM
CCCc1cc2c(N[C@H]3CC[C@H](N)CC3)c(C(=O)NC3CCN(c4ncccn4)CC3)cnc2[nH]1 [Compound 141] | 0.1 to 1 µM | < 0.1 µM
CCCc1cc2c(N[C@H]3CC[C@H](N)CC3)c(Br)cnc2[nH]1 [Compound 142] | 0.1 to 1 µM | < 0.1 µM
CC(O)c1cc2c(N[C@H]3CC[C@H](O)CC3)c(-c3ccc(CN4CCOCC4)cn3)cnc2[nH]1 (some centres unmarked) [Compound 143] | < 0.1 µM | < 0.1 µM
COC(C)c1cc2c(N[C@H]3CC[C@H](N)CC3)c(C(=O)Nc3ccc(F)cc3)cnc2[nH]1 (some centres unmarked) [Compound 145] | 1 to 10 µM | 0.1 to 1 µM
CCC(OC)c1cc2c(N[C@H]3CC[C@H](N)CC3)c(C(=O)Nc3ccc(F)cc3)cnc2[nH]1 (some centres unmarked) [Compound 146] | 1 to 10 µM | < 0.1 µM
CCC(CC)c1cc2c(N[C@H]3CC[C@H](N)CC3)c(C(=O)Nc3ccc(F)cc3)cnc2[nH]1 [Compound 147] | 1 to 10 µM | < 0.1 µM
CCOC(C)c1cc2c(N[C@H]3CC[C@H](N)CC3)c(C(=O)Nc3ccc(F)cc3)cnc2[nH]1 (some centres unmarked) [Compound 152] | > 10 µM | 0.1 to 1 µM
CCCC(OC)c1cc2c(N[C@H]3CC[C@H](N)CC3)c(C(=O)Nc3ccc(F)cc3)cnc2[nH]1 (some centres unmarked) [Compound 153] | > 10 µM | < 0.1 µM
CCCC(O)c1cc2c(N[C@H]3CC[C@H](N)CC3)c(C(=O)Nc3ccc(F)cc3)cnc2[nH]1 (some centres unmarked) [Compound 154] | > 10 µM | 0.1 to 1 µM
COCC(C)c1cc2c(N[C@H]3CC[C@H](N)CC3)c(C(=O)Nc3ccc(F)cc3)cnc2[nH]1 (some centres unmarked) [Compound 155] | 1 to 10 µM | < 0.1 µM
CC[C@H](C)c1cc2c(N[C@H]3CC[C@H](N)CC3)c(C(=O)Nc3ccc(F)cc3)cnc2[nH]1 [Compound 156] | 0.1 to 1 µM | < 0.1 µM
